# pKi: −log10 of the molar value.
# Test: Displacement of [3H]Cl-DPDPE from delta receptor in guinea pig brain homogenate
row,SMILES,pKi
1,"COc1ccc2c3c1O[C@H]1C(=O)CC[C@@]4(NC(=O)CCc5ccc(Cl)cc5)[C@@H](C2)N(CC2CC2)CC[C@]314 [N-cyclopropylmethyl-14beta-[3'-(4'-chlorophenyl)propanamido]-7,8-dihydronorcodeinone]",8.29
2,"O=C(CCc1ccc(Cl)cc1)N[C@@]12CCC(=O)[C@@H]3Oc4c(O)ccc5c4[C@@]31CCN(CC1CC1)[C@@H]2C5 [N-cyclopropylmethyl-14beta-[3'-(4'-chlorophenyl)propanamido]-7,8-dihydronormorphinone]",9.22
3,"COc1ccc2c3c1O[C@H]1C(=O)CC[C@@]4(NCCCc5ccc(Cl)cc5)[C@@H](C2)N(CC2CC2)CC[C@]314 [N-cyclopropylmethyl-14beta-[3'-(4'-chlorophenyl)propylamino]-7,8-dihydronorcodeinone]",7.51
4,"O=C1CC[C@@]2(NCCCc3ccc(Cl)cc3)[C@H]3Cc4ccc(O)c5c4[C@@]2(CCN3CC2CC2)[C@H]1O5 [N-cyclopropylmethyl-14beta-[3'-(4'-chlorophenyl)propylamino]-7,8-dihydronormorphinone]",8.96
